Twelve molecules from US20150274777A1, “KETOAMIDE IMMUNOPROTEASOME INHIBITORS” (HOFFMANN-LA ROCHE INC., priority 2012, published 2015) can be followed below.

One assay deals with T1, β5i (Homo sapiens, UniProt P20618+P28062).
T1 construct: protease activity associated with the proteasome complex in cultured cells; endogenous in cells; host or cells: Ramos cells
As to the kind of experiment: Cell-Based Proteasome Activity/Selectivity Assay (Ramos cells), substrate (ANW)2Rh110. The following applies: highest concentration tested 20 μM, read-out: Ic50 ramos:ac-(anw)2-r110. From the text:
(§1) Cell-Based Proteasome Activity/Selectivity Assay
(§2) The Cell-Based Proteasome subunit activity/selectivity assay was a panel of 5 fluorogenic assays that independently measured the activity of β5c or β5i (chymotrypsin-like activity), β2c/2i (trypsin-like), and β1c or β1i (caspase-like) protease activity associated with the proteasome complex in cultured cells. Specifically, the following substrates were used for respective subunit activities: β1i: (PAL)2Rh110, β1c: (LLE)2 Rh110, β2c/2i: (KQL)2Rh110, β5c: (WLA)2Rh110, β5i: (ANW)2Rh110. The following procedure was followed:
(§3) Cell preparation: Plated 25 μl of Ramos cells (2×10^6/ml in DPBS) into half area plate (PerkinElmer Cat 6005569) to final 5×10^4 cells/well. Added 0.5 μl of 100×4-fold serial diluted test compounds or DMSO to each well. Highest concentration of compound tested was 20 μM, thus compound serial dilution started from […]. Incubated for 30 minutes at 37° C. Then equilibrated at room temperature for 15 minutes. Added 25 μl of 2× reaction mix consisting of 0.025% digitonin, 20 μM of each substrates and 0.5M sucrose in DPBS. Shaked for one minute @ 700 rpm. Incubated for 120 min at room temperature. Then read the plates with an Envision multilabel plate reader (PerkinElmer) with 500 nm excitation/519 nm emission.

Another assay concerns the target T2, β1i (Homo sapiens, UniProt P28065+P40306).
T2 construct: protease activity associated with the proteasome complex in cultured cells; endogenous in cells; host or cells: Ramos cells
Kind of assay: Cell-Based Proteasome Activity/Selectivity Assay (Ramos cells), substrate (PAL)2Rh110. The following applies: highest concentration tested 20 μM.
Excerpt: as §1, §2, §3

The next assay concerns the target T3, β5c (Homo sapiens, UniProt P20618+P28074).
T3 construct: protease activity associated with the proteasome complex in cultured cells; endogenous in cells; host or cells: Ramos cells
As to the kind of experiment: Cell-Based Proteasome Activity/Selectivity Assay (Ramos cells), substrate (WLA)2Rh110. The following applies: highest concentration tested 20 μM.
Excerpt: as §1, §2, §3

Assay [1] has as its system IP10 level in PBMCs stimulated with CpG Type A. Kind of assay: PBMC IP-10 Assay. The settings on record: CpG Type A 2.5 μM. The class given is cell-based. On the procedure: PBMCs were isolated from whole blood as follows: Blood was collected in a sterile environment in heparinized tubes. Blood was diluted with an equal volume PBS/2% FCS and 30 ml of this mixture was added to ACCUSPIN tubes containing 15 ml Histopaque-1077 already centrifuged at 800 g for 30 seconds and warmed up at room temperature. The tubes were then centrifuged at 800 g for 20 minutes at room temperature with no brake. The mononuclear band, just above the polyethylene frit, was removed by Pasteur pipet. These mononuclear cells were washed three times with sterile PBS, counted, and resuspended in RPMI 1640 supplemented with 10% heat inactivated fetal calf serum, 10 mM HEPES, 1 mM sodium pyruvate, penicillin (50 U/ml), streptomycin (50 μg/ml) and glutamine (2 mM) to approximately 1.5×10^6/ml. Approximately 2×10^5 cells/well were plated in 96 well tissue culture plates (BD Falcon 353072), and preincubated 60 mi/37° C. with a titration of compounds, in a final concentration of 1% DMSO. Cells were then stimulated with CpG Type A (Invivogen, Cat #tlrl-2216; ODN 2216) at a final concentration of 2.5 μM. Cells were incubated overnight, and supernatants were removed. PBMC viability of cells remaining in the well was measured with ATPlite luminescence assay (Perkin-Elmer) per the manufacturer's instructions. Luminescence was measured on the Perkin-Elmer Envision, using the luminescence filter. IP10 level was measured with CXCL10/IP10 AlphaLISA kit (Perkin-Elmer) per the manufacturer's instructions, except halving all volumes. Fluorescence was measured on the Envision Multilabel plate reader, using the AlphaScreen standard settings.

In another assay the target is T4, β1c (Homo sapiens, UniProt P28072+Q99436).
T4 construct: protease activity associated with the proteasome complex in cultured cells; endogenous in cells; host or cells: Ramos cells
Kind of assay: Cell-Based Proteasome Activity/Selectivity Assay (Ramos cells), substrate (LLE)2 Rh110. The following applies: highest concentration tested 20 μM.
Excerpt: as §1, §2, §3

The next assay has as its system β2c/2i. Kind of assay: Cell-Based Proteasome Activity/Selectivity Assay (Ramos cells), substrate (KQL)2Rh110. The following applies: highest concentration tested 20 μM.
Excerpt: as §1, §2, §3

Each structure is given as a SMILES string.

As for `CCCC[C@H](NC(=O)[C@H](CC(C)C)NC(=O)[C@@H](NC(=O)[C@H](Cc1ccccc1C)NC(C)=O)C(C)(C)C)C(=O)C(=O)NCc1ccccc1` [Example 1, (S)-3-{(S)-2-[(S)-2-((S)-2-Acetylamino-3-o-tolyl-propionylamino)-3,3-dimethyl-butyrylamino]-4-methyl-pentanoylamino}-2-oxo-heptanoic acid benzylamide], the IC50 at β5i is 146 nM; against β1i, 910 nM; against β5c, 450 nM; against β1c it was 3550 nM; with β2c/2i, 10600 nM. Further, in assay [1], the 50% effective concentration (EC50) stood at 2050 nM.
Regarding `C[C@H](NC(=O)c1cc(C(F)(F)F)nn1C)C(=O)N[C@@H](Cc1ccccc1)C(=O)N[C@@H](Cc1ccccc1)C(=O)C(=O)NCc1ccccc1` [Example 55, 2-Methyl-5-trifluoromethyl-2H-pyrazole-3-carboxylic acid {(S)-1-[(S)-1-((S)-1-benzyl-2-benzylcarbamoyl-2-oxo-ethylcarbamoyl)-2-phenyl-ethylcarbamoyl]-ethyl}-amide], the IC50 was 176 nM on β5i; 8920 nM against β1i; 5770 nM at β5c; more than 20000 nM at β1c; more than 20000 nM in the assay on β2c/2i. Besides, in assay [1], the EC50 was found to be 3880 nM.
As to `CC(C)C[C@H](NC(=O)[C@H](C)NC(=O)c1ccnn1C)C(=O)N[C@@H](Cc1ccccc1)C(=O)C(=O)NCc1ccccc1` [Example 37, 2-Methyl-2H-pyrazole-3-carboxylic acid {(S)-1-[(S)-1-((S)-1-benzyl-2-benzylcarbamoyl-2-oxo-ethylcarbamoyl)-3-methyl-butylcarbamoyl]-ethyl}-amide], the IC50 is 234 nM at β5i; 1080 nM against β1i; 4440 nM on β5c; more than 20000 nM against β1c; more than 20000 nM in the assay on β2c/2i. Moreover, a half-maximal response in assay [1] (EC50) required 5100 nM.
As for `COc1ccc(C[C@H](NC(=O)[C@@H](NC(=O)C2Cc3ccccc3C2)C2CC2)C(=O)N[C@@H](Cc2ccccc2)C(=O)C(=O)NCc2ccccc2)cc1` [Example 26, Indan-2-carboxylic acid {(S)-[(S)-1-((S)-1-benzyl-2-benzylcarbamoyl-2-oxo-ethylcarbamoyl)-2-(4-methoxy-phenyl)-ethylcarbamoyl]-cyclopropyl-methyl}-amide], the IC50 was determined as 4 nM at β5i; 181 nM against β1i; 15 nM on β5c; 2380 nM on β1c; 380 nM in the assay with β2c/2i. It took 203 nM to reach a half-maximal effect in assay [1] (EC50).
As to `CC1=C(C(=O)N[C@@H](C)C(=O)N[C@@H](CCS(C)(=O)=O)C(=O)N[C@@H](Cc2ccccc2)C(=O)C(=O)NCc2ccccc2)Cc2ccccc21` [Example 20, 3-Methyl-1H-indene-2-carboxylic acid {(S)-1-[(S)-1-((S)-1-benzyl-2-benzylcarbamoyl-2-oxo-ethylcarbamoyl)-3-methanesulfonyl-propylcarbamoyl]-ethyl}-amide], the IC50 on β5i was 15 nM; against β1i, 738 nM; against β5c it was 157 nM; against β1c it was more than 20000 nM; in the assay on β2c/2i, more than 20000 nM. Also, the EC50 in assay [1] turned out to be 1640 nM.
Regarding `COc1ccc(C[C@H](NC(=O)[C@H](C)NC(=O)c2cc3ncccc3n2C)C(=O)N[C@@H](Cc2ccccc2)C(=O)C(=O)NCc2ccccc2)cc1` [Example 45], the IC50 on β5i is 13 nM; against β1i, 496 nM; against β5c, 250 nM; against β1c it was 6380 nM; in the assay with β2c/2i, more than 20000 nM. For the same molecule, in assay [1], the EC50 worked out at 1320 nM.
`COCCNC(=O)C(=O)[C@H](Cc1ccccc1)NC(=O)[C@H](Cc1c[nH]c2ccccc12)NC(=O)[C@H](C)NC(=O)OCc1ccccc1` [Example 33, {(S)-1-[(S)-1-[(S)-1-Benzyl-2-(2-methoxy-ethylcarbamoyl)-2-oxo-ethylcarbamoyl]-2-(1H-indol-3-yl)-ethylcarbamoyl]-ethyl}-carbamic acid benzyl ester]: the IC50 on β5i is 14 nM; at β1i, 205 nM; at β5c, 597 nM; on β1c, 17500 nM; in the assay on β2c/2i, more than 20000 nM. Moreover, the response in assay [1] was half-maximal at 1380 nM (EC50).
As for `C[C@H](NC(=O)OCc1ccccc1)C(=O)NC(CC(F)(F)F)C(=O)N[C@@H](Cc1ccccc1)C(=O)C(=O)NCc1ccccc1` (stereo partly drawn) [Example 57, {(S)-1-[1-((S)-1-Benzyl-2-benzylcarbamoyl-2-oxo-ethylcarbamoyl)-3,3,3-trifluoro-propylcarbamoyl]-ethyl}-carbamic acid benzyl ester], the IC50 on β5i was 524 nM; at β1i it was 2730 nM; against β5c, 6160 nM; on β1c it was more than 20000 nM; in the assay on β2c/2i, more than 20000 nM. In assay [1], this molecule registered an EC50 of 5030 nM.
For `CCCC[C@H](NC(=O)[C@H](Cc1c[nH]c2ccccc12)NC(=O)[C@H](C)NC(=O)c1cc(C)on1)C(=O)C(=O)NCc1ccccc1` [Example 4, 5-Methyl-isoxazole-3-carboxylic acid {(S)-1-[(S)-1-((S)-1-benzylaminooxalyl-pentylcarbamoyl)-2-(1H-indol-3-yl)-ethylcarbamoyl]-ethyl}-amide], the IC50 is 83 nM at β5i; 91 nM against β1i; 763 nM against β5c; 5700 nM on β1c; more than 20000 nM in the assay on β2c/2i. In assay [1], a half-maximal response (EC50) required 3910 nM.
Take `C[C@H](NC(=O)OCc1ccccc1)C(=O)N[C@@H](Cc1ccc(Cl)cc1)C(=O)N[C@@H](Cc1ccccc1)C(=O)C(=O)NCc1ccccc1` [Example 51, {(S)-1-[(S)-1-((S)-1-Benzyl-2-benzylcarbamoyl-2-oxo-ethylcarbamoyl)-2-(4-chloro-phenyl)-ethylcarbamoyl]-ethyl}-carbamic acid benzyl ester]: the IC50 at β5i was 21 nM; on β1i, 9840 nM; on β5c, 5180 nM; on β1c, more than 20000 nM; in the assay with β2c/2i, more than 20000 nM. This molecule gave an EC50 in assay [1] of 2590 nM.
As for `COc1ccc(C[C@H](NC(=O)[C@H](C)NC(=O)C2Cc3ccccc3C2)C(=O)NC2(C(=O)C(=O)NCc3ccccc3)Cc3ccccc3C2)cc1` [Example 59, Indan-2-carboxylic acid {(S)-1-[(S)-1-(2-benzylaminooxalyl-indan-2-ylcarbamoyl)-2-(4-methoxy-phenyl)-ethylcarbamoyl]-ethyl}-amide], the IC50 on β5i is 89 nM; against β1i it was more than 20000 nM; on β5c it was 1360 nM; at β1c, more than 20000 nM; with β2c/2i, more than 20000 nM. The molecule also returned an EC50 in assay [1] of 11700 nM.
In the case of `COc1ccc(C[C@H](NC(=O)C2(NC(=O)C3Cc4ccccc4C3)CC2)C(=O)N[C@@H](Cc2ccccc2)C(=O)C(=O)NCc2ccccc2)cc1` [Example 27, Indan-2-carboxylic acid {1-[(S)-1-((S)-1-benzyl-2-benzylcarbamoyl-2-oxo-ethylcarbamoyl)-2-(4-methoxy-phenyl)-ethylcarbamoyl]-cyclopropyl}-amide], the IC50 is 40 nM on β5i; 5060 nM against β1i; 4520 nM against β5c; 12900 nM at β1c; more than 20000 nM with β2c/2i. Besides, a half-maximal effect in assay [1] (EC50) was put at 4870 nM.
